According to ChEMBL document CHEMBL3046960, “Are traditional neem extract preparations as efficient as a commercial formulation of azadirachtin A?” (2011):

Legend:
Format in all cases: functional
[1] = tested on: Macrosteles quadripunctulatus; test: Insecticidal activity against third to fourth-instar nymphs stage Macrosteles quadripunctulatus assessed as mortality rate at 25 mg/L (reference value: 11.4%)
Bemisia tabaci = test: Insecticidal activity against Bemisia tabaci (sweet potato whitefly) in cucumber plant assessed as mortality rate at 25 mg/L relative to control
Spodoptera littoralis = test: Insecticidal activity against third to fourth instar larvae Spodoptera littoralis in broad bean plant assessed as mortality rate at 25 mg/L (reference value: 33.3%)

SMILES	mortality at 25 µg/mL [1]	mortality at 25 µg/mL (Bemisia tabaci)	mortality at 25 µg/mL (Spodoptera littoralis)
C/C=C(\C)C(=O)O[C@H]1C[C@@H](OC(C)=O)[C@@]2(C(=O)OC)CO[C@H]3[C@@H](O)[C@@](C)([C@]45O[C@@]4(C)[C@@H]4C[C@H]5O[C@@H]5OC=C[C@@]54O)[C@H]4[C@]1(CO[C@]4(O)C(=O)OC)[C@@H]32 [AZADIRACHTIN A]	30%	82.8%	83.5%
C/C=C(\C)C(=O)O[C@H]1C[C@@H](OC(C)=O)[C@@]2(C(=O)OC)CO[C@H]3[C@@H](O)[C@@](C)([C@]45O[C@@]4(C)[C@H]4C[C@@H]5O[C@@H]5OC=C[C@@]54O)[C@H]4[C@]1(CO[C@]4(O)C(=O)OC)[C@@H]32 [AZADIRACTIN]	85.7%	94.1%	100%
